In the assay the target is Josephin-1 (Homo sapiens, UniProt Q15040). An excerpt:
Human JOSD1 protein was purified according to standard protocols.

Each structure is given as a SMILES string.

Consider 1 compound from BindingDB's records for patent US20240335427 (Dana-Farber Cancer Institute, 2024).

By IC50 is commonly meant the midpoint of a concentration-inhibition curve. Higher therefore signals weaker potency in that assay. The compound `N#CN1CC[C@@H](C(=O)Nc2nc3ccc(-c4ccc5[nH]ncc5c4)cc3s2)C1` [US20240335427, Compound 7] had an IC50 of 0.095 µM.
